Assay results as given in the Kinase Knowledgebase extract (Sharma et al. 2016).

Target: CDK2 (human) (UniProt P24941)
Assay: Enzyme Assay

Row | Compound | IC50 [nM]
1 | CC(C)(C)c1cnc(CSc2cnc(NC(=O)C3CCN(c4ncc(C(=O)NO)cn4)CC3)s2)o1 | ≤ 100
2 | CNC(=O)CCCCCOc1ccc(CC(=O)Nc2ncc(SCc3ncc(C(C)(C)C)o3)s2)cc1 | ≤ 100
3 | CC(C)(C)c1cnc(CSc2cnc(NC(=O)Nc3ccc(OCCCC(=O)NO)cc3)s2)o1 | ≤ 100
4 | CC(C)(C)c1cnc(CSc2cnc(NC(=O)c3ccc(OCCCCC(=O)NO)cc3)s2)o1 | ≤ 100
5 | CC(C)(C)c1cnc(CSc2cnc(NC(=O)C3CCN(CCCCCCC(=O)NO)CC3)s2)o1 | ≤ 100
6 | CC(C)(C)c1cnc(CSc2cnc(NC(=O)c3ccc(/C=C/C(=O)NO)cc3)s2)o1 | ≤ 100
7 | CC(C(=O)Nc1ncc(SCc2ncc(C(C)(C)C)o2)s1)c1ccc(OCCCC(=O)NO)cc1 (configuration not stated) | ≤ 100
8 | CC(Sc1cnc(NC(=O)Cc2ccc(OCCCC(=O)NO)cc2)s1)c1ncc(C(C)(C)C)o1 (configuration not stated) | ≤ 100
9 | CC(C)(C)c1cnc(CSc2cnc(NC(=O)c3ccc(OCCCCCCC(=O)NO)cc3)s2)o1 | ≤ 100
10 | CC(C)(C)c1cnc(CSc2cnc(NC(=O)Cc3ccc(OCCCCC(=O)NO)cc3)s2)o1 | ≤ 100
11 | CC(C)(C)c1cnc(CSc2cnc(NC(=O)C(C)(C)c3ccc(OCCCC(=O)NO)cc3)s2)o1 | ≤ 100
12 | CC(C)c1cnc(CSc2cnc(NC(=O)Cc3ccc(OCCCCCCC(=O)NO)cc3)s2)o1 | ≤ 100
13 | CC(C)(C)c1cnc(CSc2cnc(NC(=O)c3ccc(OCCCCCC(=O)NO)cc3)s2)o1 | ≤ 100
14 | CC(C)(C)c1cnc(CSc2cnc(NCC3CCN(c4ncc(C(=O)NO)cn4)CC3)s2)o1 | ≤ 100
15 | CC(C)(C)c1cnc(CSc2cnc(NC(=O)c3cccc(/C=C/C(=O)NO)c3)s2)o1 | ≤ 100
16 | CC(C)(C)c1cnc(CSc2cnc(NC(=O)Oc3ccc(OCCCC(=O)NO)cc3)s2)o1 | ≤ 100
17 | CC(C)(C)c1cnc(CSc2cnc(NC(=O)C3CCN(CCCCCC(=O)NO)CC3)s2)o1 | ≤ 100

Results, then the compound that gave them:

Row | IC50 [nM] | Compound
18 | ≤ 100 | CC(C)(C)c1cnc(CSc2cnc(NC(=O)CCCNCCC(=O)NO)s2)o1
19 | ≤ 100 | CC(C)(C)c1cnc(CSc2cnc(NC(=O)Cc3ccc(OCCCC(=O)NO)cc3)s2)o1
20 | ≤ 100 | CC(C)(C)c1cnc(CSc2cnc(NC(=O)C3CCN(CCCCC(=O)NO)CC3)s2)o1
21 | ≤ 100 | CC(C)(C)c1cnc(CSc2cnc(NC(=O)c3ccc(OCCCC(=O)NO)cc3)s2)o1
22 | ≤ 100 | CC(C)(C)c1cnc(CSc2cnc(NC(=O)CCCCC(=O)NO)s2)o1
23 | ≤ 100 | CC(C)(C)c1cnc(CSc2cnc(NC(=O)Cc3ccc(OCCC(=O)NO)cc3)s2)o1
24 | ≤ 100 | CC(C)(C)c1cnc(CSc2cnc(NC(=O)CCCNCCCCCCC(=O)NO)s2)o1
25 | ≤ 100 | CC(C)(C)c1cnc(CSc2cnc(NC(=O)C3CCN(CCCC(=O)NO)CC3)s2)o1
26 | ≤ 100 | CC(C)(C)c1cnc(CSc2cnc(NC(=O)CCCCCCC(=O)NO)s2)o1
27 | ≤ 100 | CC(C)(C)c1cnc(CSc2cnc(NC(=O)CCCC(=O)NO)s2)o1
